Experiments:
[1] = tested on: blood vessels in the dermis; assay: Vasodilation on the scalp (statement, no method)
hair follicles = assay: Cultured hair follicles: growth monitored over 14 days; type: cell-based; details: 2 ppm in medium
Procedure: Excess hair follicles prepared in the context of a micrograft transplantation session were collected for culturing in a medium similar to that reported in, and herein encorporated by reference, Philpott et al., Whole Hair Follicule Culture, Dermatologic Clinics 595 (Oct. 14, 1996). Said hair follicles were then individually incubated at 37° C. under an air plus CO2 (at 5%) atmosphere for 14 days. The explants were then divided into four groups: 1) a control group for the culture medium alone, 2) a positive control group which was exposed to a medium of 2 ppm Minoxidil®, 3) a test group exposed to the peptide biotinyl-GHK in a medium of 2 ppm biotinyl-GHK, and 4) a test group exposed to the peptide biotinyl-GHK in a medium of 5 ppm biotinyl-GHK. The culture medium was changed every 2 days. General morphology was observed on Day 1 and Day 14. Concomitantly, a fraction of the follicles were frozen for the purposes of conducting more advanced immunohistochemical studies. Growth in the follicles was monitored using a digital camera with images being taken on Day 0, Day 3, Day 5, Day 7, Day 11, and Day 14.

5α-reductase = assay: Inhibition of 5α-reductase (statement, no method); type: biochemical

SMILES: O=c1cc(-c2ccc(O)cc2)oc2cc(O)cc(O)c12 [Apigenin]
- effect of use on the scalp on blood vessels [1]: dilates the blood vessels in the dermis

SMILES: Nc1cc(N2CCCCC2)nc(N)[n+]1[O-] [Minoxidil®, Minoxidil, reference compound]
- more growth than observed from the control group (hair follicles): 58%

SMILES: CC1(C)CC[C@]2(C(=O)O)CC[C@]3(C)C(=CC[C@@H]4[C@@]5(C)CC[C@H](O)C(C)(C)[C@@H]5CC[C@]43C)[C@@H]2C1 [oleanolic acid]
- inhibitory action on the enzyme 5α-reductase (5α-reductase): strong inhibitory action
